Measurements: patent publication US20170319661A1, “Methods and Pharmaceutical Compositions Using Orexins (OXA, OXB) for the Treatment of Prostate Cancers” (INSERM (Institut National de la Sante et de la Recherche …, priority 2014, published 2017)
“Also recorded” adds a separate entry of the source.

Legend:
Format in all cases: cell-based, human
DU145 cells [1] = experiment: Apo-ONE Homogeneous Caspase-3/7 apoptosis assay in DU145 cells (native or neuroendocrine-differentiated); details: 10^-6 M, 3 days
From the text: (§1) Two human-derived CaP cell lines were used, i.e. the androgen-responsive cell line LNCaP, and the androgen-unresponsive cell line DU145 as well as the colorectal adenocarcinoma HT-29 cell line. The three cell lines were purchased from American Type Culture Collection (ATCC, Rockville, Md.). The LNCaP cells were maintained in RPMI 1640 medium supplemented with 10% fetal bovine serum (FBS), 1% penicillin/streptomycin and 1% glutamine (complete medium). The DU145 cells were maintained in Dulbecco modified Eagle's minimal essential medium (DMEM) supplemented with 10% FBS and 1% penicillin/streptomycin (complete medium). The HT-29 cells were maintained in DMEM supplemented with 10% FBS, 1% penicillin/streptomycin and 1% glutamine. […]
(§2) Cell viability was determined by using the CellTiter-Blue® assay (Promega, Charbonnières, France). Cell apoptosis was quantified by evaluating the enzymatic activities of Caspase 3/7 by using the Apo-ONE® Homogeneous Caspase-3/7 Assay (promega). Briefly, the enzymes were measured in intact and differentiated DU145 culture cells after a 3-days incubation with OxA or OxB (10^-6M) in 96-well plates. The cells were incubated with fluorogenic peptide specific to caspase 3 and 7 enzymes, and detection of fluorescent product over time was monitored in a spectrofluorometer Flex Station 3 (Molecular Devices, St. Grégoire, France) at 485 nm excitation and 527 nm emission. […]

HT-29 cells [2] = experiment: Apo-ONE Homogeneous Caspase-3/7 apoptosis assay in HT-29 cells (positive control); details: 10^-6 M
DU145 cells [3] = experiment: CellTiter-Blue cell viability / growth of DU145 cells; details: native DU145 cells, 10^-6 M, 3 days
From the text: as §1, §2

HT-29 cells [4] = experiment: Cell viability / growth of HT-29 cells
From the text: as §1, §2

Orexin-B [OxB]
apoptosis (Caspase 3/7 activity) (DU145 cells [1]; DU145 cells submitted to neuroendocrine differentiation (db-cAMP 1 mM/IBMX 0.1 mM)): promote cell death | apoptosis (Caspase 3/7 activity) (DU145 cells [1]; native DU145 cells): did not alter apoptosis; also recorded: has no effect on the apoptosis rate | apoptosis (Caspase 3/7 activity) (HT-29 cells [2]): promoted significantly the apoptosis | cell growth (DU145 cells [3]): increased cell growth | cell growth (HT-29 cells [4]): inhibited cell growth
